In paper PMC11007962, “First-in-human study of GFH018, a small molecule inhibitor of transforming growth factor-β receptor I inhibitor, in patients with advanced solid tumors” (BMC Cancer, 2024):
Marks after values point to notes of the source that are not given here.

Test system: advanced solid tumors
Test: Clinical efficacy: tumor response per RECIST 1.1
Type: in vivo, human
Method: The endpoints for efficacy, including the objective response rate (ORR), disease control rate (DCR), progression-free survival (PFS), and time to progression (TTP), were assessed per RECIST 1.1. Tumor response was evaluated every two treatment cycles until disease progression, start of a new antitumor treatment, consent withdrawal, loss to follow-up, or study termination for other reasons.

[1] = 5 mg BID 14d-on/14d-off (N = 4)
[2] = 10 mg BID 14d-on/14d-off (N = 3)
[3] = 20 mg BID 14d-on/14d-off (N = 4)
[4] = 30 mg BID 14d-on/14d-off (N = 7)
[5] = 40 mg BID 14d-on/14d-off (N = 4)
[6] = 50 mg BID 14d-on/14d-off (N = 4)
[7] = 65 mg BID 14d-on/14d-off (N = 6)
[8] = 85 mg BID 14d-on/14d-off (N = 12)

## Cc1cccc(-c2nn3c(c2-c2ccc4ncnn4c2/C=C/C(N)=O)CCC3)n1 [GFH018]
[1]
  BOR: CR: 0 n (%)
  BOR: NA (no postbaseline assessments after the start date): 2 (50.0%) n (%)
  BOR: NE (not estimable): 0 n (%)
  BOR: Non-CR/Non-PD: 0 n (%)
  BOR: PD: 2 (50.0%) n (%)
  BOR: PR: 0 n (%)
  BOR: SD: 0 n (%)
  DCR (90%CI): 0 n (%)
  ORR (90%CI): 0 n (%)
[2]
  BOR: CR: 0 n (%)
  BOR: NA (no postbaseline assessments after the start date): 0 n (%)
  BOR: NE (not estimable): 0 n (%)
  BOR: Non-CR/Non-PD: 0 n (%)
  BOR: PD: 2 (66.7%) n (%)
  BOR: PR: 0 n (%)
  BOR: SD: 1 (33.3%) n (%)
  DCR (90%CI): 1 (33.3%) (0.84%, 90.57%) n (%)
  ORR (90%CI): 0 n (%)
[3]
  BOR: CR: 0 n (%)
  BOR: NA (no postbaseline assessments after the start date): 1 (25.0%) n (%)
  BOR: Non-CR/Non-PD: 0 n (%)
  BOR: PD: 1 (25.0%) n (%)
  BOR: PR: 0 n (%)
  BOR: SD: 1 (25.0%) n (%)
  DCR (90%CI): 1 (25.0%) (0.63%, 80.59%) n (%)
  ORR (90%CI): 0 n (%)
20 mg BID 14d-on/14d-off (N = 4), SD of insufficient duration
  BOR: NE (not estimable): 1 (25.0%)^e n (%)
[4]
  BOR: CR: 0 n (%)
  BOR: NA (no postbaseline assessments after the start date): 3 (42.9%) n (%)
  BOR: NE (not estimable): 0 n (%)
  BOR: Non-CR/Non-PD: 0 n (%)
  BOR: PD: 3 (42.9%) n (%)
  BOR: PR: 0 n (%)
  BOR: SD: 1 (14.3%) n (%)
  DCR (90%CI): 1 (14.3%) (0.36%, 57.87%) n (%)
  ORR (90%CI): 0 n (%)
[5]
  BOR: CR: 0 n (%)
  BOR: NA (no postbaseline assessments after the start date): 1 (25.0%) n (%)
  BOR: NE (not estimable): 0 n (%)
  BOR: Non-CR/Non-PD: 0 n (%)
  BOR: PD: 3 (75.0%) n (%)
  BOR: PR: 0 n (%)
  BOR: SD: 0 n (%)
  DCR (90%CI): 0 n (%)
  ORR (90%CI): 0 n (%)
[6]
  BOR: CR: 0 n (%)
  BOR: NA (no postbaseline assessments after the start date): 2 (50.0%) n (%)
  BOR: NE (not estimable): 0 n (%)
  BOR: Non-CR/Non-PD: 0 n (%)
  BOR: PD: 1 (25.0%) n (%)
  BOR: PR: 0 n (%)
  BOR: SD: 1 (25.0%) n (%)
  DCR (90%CI): 1 (25.0%) (0.63%, 80.59%) n (%)
  ORR (90%CI): 0 n (%)
[7]
  BOR: CR: 0 n (%)
  BOR: NA (no postbaseline assessments after the start date): 0 n (%)
  BOR: NE (not estimable): 0 n (%)
  BOR: Non-CR/Non-PD: 0 n (%)
  BOR: PD: 5 (83.3%) n (%)
  BOR: PR: 0 n (%)
  BOR: SD: 1 (16.7%) n (%)
  DCR (90%CI): 1 (16.7%) (0.42%, 64.12%) n (%)
  ORR (90%CI): 0 n (%)
85 mg BID 7d-on/7d-off (N = 6)
  BOR: CR: 0 n (%)
  BOR: NA (no postbaseline assessments after the start date): 3 (50.0%) n (%)
  BOR: NE (not estimable): 0 n (%)
  BOR: Non-CR/Non-PD: 0 n (%)
  BOR: PD: 2 (33.3%) n (%)
  BOR: PR: 0 n (%)
  BOR: SD: 1 (16.7%) n (%)
  DCR (90%CI): 1 (16.7%) (0.42%, 64.12%) n (%)
  ORR (90%CI): 0 n (%)
[8]
  BOR: CR: 0 n (%)
  BOR: NA (no postbaseline assessments after the start date): 5 (41.7%) n (%)
  BOR: NE (not estimable): 0 n (%)
  BOR: Non-CR/Non-PD: 0 n (%)
  BOR: PD: 4 (33.3%) n (%)
  BOR: PR: 0 n (%)
  BOR: SD: 3 (25.0%) n (%)
  DCR (90%CI): 3 (25.0%) (5.49%, 57.19%) n (%)
  ORR (90%CI): 0 n (%)
85 mg BID, 14 d-on/14 d-off, twelve patients
  DCR: 25.0%
85 mg BID, 14 d-on/14 d-off, twelve patients, 90% CI, 0.82–3.75
  median PFS: 1.8 months
50 enrolled patients, 33 with at least one tumor assessment
  complete response (CR) or partial response (PR): No complete response (CR) or partial response (PR) was observed
Total (N = 50)
  BOR: CR: 0 n (%)
  BOR: NA (no postbaseline assessments after the start date): 17 (34.0%) n (%)
  BOR: Non-CR/Non-PD: 0 n (%)
  BOR: PD: 23 (46.0%) n (%)
  BOR: PR: 0 n (%)
  BOR: SD: 9 (18.0%) n (%)
  DCR (90%CI): 9 (18.0%) (8.58%, 31.44%) n (%)
  ORR (90%CI): 0 n (%)
Total (N = 50), SD of insufficient duration
  BOR: NE (not estimable): 1 (2.0%)^e n (%)
One patient with thymic carcinoma, 65 mg BID
  maximum target lesion decrease: 18.4%
